In patent US9823260B2, “Method to increase bioavailability of the delta-opioid receptor for management of pain and neuropsychiatric disorders” (priority 2014, dated 2017):

Columns and labels:
Assay type in all cases: in vivo
[1] = system: male C57BL6J mice; assay: Warm water tail withdrawal assay (thermal nociception)
Procedure: (§1) The first three graphs in FIG. 2 show the function response of DOR on the surface. An EPAC FRET sensor was used with live cell imaging under physiologic conditions of 37° C. The modulation of the cAMP activity was determined by performing a ratiometric analysis of an the donor fluorophore (Cyan Fluorescent Protein) image divided by the FRET image yielding a blue color for low cAMP and red for high cAMP. DOR was concomitantly visualized by fluorescent tagging. […] The two images on the bottom-right of FIG. 2 show data in an experiment in which mechanical allodynia and tail withdrawal latency was performed in male C57BL6J mice 9-10 weeks old to determine the effects of the DOR agonist SNC-80 in the presence or absence of PTEN inhibition. […] All mice received SNC-80 (10 mg/kg IP). Additionally, pretreatment of mice with the PTEN inhibitor bpv(Phen) increased the antinociceptive effect of the DOR agonist SNC-80. Together, these methods can be used for stimulated DOR delivery as a convergent strategy for improving the efficacy of DOR agonists.
In this experiment, thermal nociception was determined by using the warm water tail withdrawal assay, with a cut-off of 12 s at 52.5° C. water temperature. After 3 basal measurements, mice were injected with vehicle or bpv(phen)(10 mg/kg SC), and returned to their home cages. […] They were subsequently tested every 15 minutes for 90 minutes. All animals were male C57b16J mice of 9-10 weeks of age, n=8 per group. […] Mechanical allodynia was tested using standard protocols (such as the protocols disclosed by Pradhan et al., 2009, PMID: 1941254) on male C57b16J mice 9-10 weeks old, n=8 per group. Mice were injected with vehicle or bpv(phen)(10 mg/kg), and tested four hours after for reduced allodynia in response to SNC-80. […] Mechanical hyperalgesia was tested in a CFA model for chronic pain. […]
As shown next in FIG. 12 (left), thermal nociception was determined by using the warm water tail withdrawal assay, with a cut-off of 12 s at 52.5° C. water temperature. […]

[2] = system: male C57BL6J mice; assay: Mechanical allodynia test
Procedure: as §1, with “Additionally, pretreatment of mice with the PTEN inhibitor bpv(Phen) increased the antinociceptive effect of the DOR agonist SNC-80. Together, these methods can be used for stimulated DOR delivery as a convergent strategy for improving the efficacy of DOR agonists.” left out
In this experiment, thermal nociception was determined by using the warm water tail withdrawal assay, with a cut-off of 12 s at 52.5° C. water temperature. […] Four hours post-injection, tail immersion responses were determined and mice were injected with vehicle or SNC80 (10 mg/kg IP). […]
(§2) As shown next in FIG. 12 (left), thermal nociception was determined by using the warm water tail withdrawal assay, with a cut-off of 12 s at 52.5° C. water temperature. […] Four hours post-injection, tail immersion responses were determined and mice were injected with vehicle or SNC80 (10 mg/kg IP). […]

[3] = system: mice; assay: Mechanical hyperalgesia in a CFA model for chronic pain; conditions: CFA 72 hours; bpv(phen) 10 mg/kg SC, four hours later SNC 80 3 mg/kg IP
Procedure: In this experiment, thermal nociception was determined by using the warm water tail withdrawal assay, with a cut-off of 12 s at 52.5° C. water temperature. After 3 basal measurements, mice were injected with vehicle or bpv(phen)(10 mg/kg SC), and returned to their home cages. Four hours post-injection, tail immersion responses were determined and mice were injected with vehicle or SNC80 (10 mg/kg IP). They were subsequently tested every 15 minutes for 90 minutes. All animals were male C57b16J mice of 9-10 weeks of age, n=8 per group. […] Mechanical allodynia was tested using standard protocols (such as the protocols disclosed by Pradhan et al., 2009, PMID: 1941254) on male C57b16J mice 9-10 weeks old, n=8 per group. Mice were injected with vehicle or bpv(phen)(10 mg/kg), and tested four hours after for reduced allodynia in response to SNC-80. […] Mechanical hyperalgesia was tested in a CFA model for chronic pain. After baseline recordings, mice were injected with CFA (13 μl, intraplantar) and were tested 72 hours later. On the test day, mice received either bpv(phen)(10 mg/kg SC) or vehicle. […]
as §2

[4] = 2 hour pretreatment with bpV(phen) 10 mg/kg, SNC-80 10 mg/kg IP, versus vehicle

SMILES: O.O.O.OO.OO.[K+].[OH-].[V].c1cnc2c(c1)ccc1cccnc12 [bpV(phen)]
- tail withdrawal latency with SNC-80 [1, 4]: increased compared to vehicle control treated mice
- analgesic response to PTEN inhibition alone ([1]; bpV(phen) without SNC-80, mechanical allodynia and tail withdrawal): did not induce an analgesic response
- tail immersion response versus baseline without SNC80 ([1]; vehicle or bpv(phen) 10 mg/kg SC, no SNC80, 52.5° C., tested every 15 minutes for 90 minutes): did not show any significant deviation from the baseline
- mechanical allodynia (threshold) with SNC-80 [2, 4]: increased compared to vehicle control treated mice
- reduced allodynia in response to SNC-80 ([2]; bpv(phen) 10 mg/kg, tested four hours after): showed a response
- mechanical hyperalgesia response to SNC 80 [3]: showed a response to SNC80
